From ChEMBL document CHEMBL4190238, “Discovery of potent IDO1 inhibitors derived from tryptophan using scaffold-hopping and structure-based design approaches” (Eur J Med Chem, 2017)
Active and inactive are the calls of the source. No cut-off for these calls is given here.

Columns and labels:
[1] = molecular target: T1, Indoleamine 2,3-dioxygenase 1 (Homo sapiens, UniProt P14902); assay: Inhibition of IFNgamma-induced IDO1 in human HeLa cells using L-tryptophan as substrate after 24 hrs; format: cell-based
Target sequence in this assay (P14902 whole entry): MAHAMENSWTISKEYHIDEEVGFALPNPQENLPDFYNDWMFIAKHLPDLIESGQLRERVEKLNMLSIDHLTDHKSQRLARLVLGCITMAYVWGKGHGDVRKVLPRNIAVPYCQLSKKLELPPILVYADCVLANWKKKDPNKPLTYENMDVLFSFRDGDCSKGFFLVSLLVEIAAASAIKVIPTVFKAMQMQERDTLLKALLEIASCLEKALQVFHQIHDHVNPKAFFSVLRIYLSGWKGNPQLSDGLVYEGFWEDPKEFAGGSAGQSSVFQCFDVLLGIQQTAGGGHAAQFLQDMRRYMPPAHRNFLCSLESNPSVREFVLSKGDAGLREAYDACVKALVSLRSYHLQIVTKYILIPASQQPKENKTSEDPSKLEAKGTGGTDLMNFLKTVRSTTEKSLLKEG

HeLa [2] = assay: Cytotoxicity against human HeLa cells assessed as reduction in cell viability at 10 to 30 uM after 24 hrs by MTT assay; format: cell-based
HeLa [3] = assay: Inhibition of IFNgamma-induced IDO1 protein expression in human HeLa cells at IDO1 inhibitory IC50 after 24 hrs by Western blot method; format: functional, cell-based
[4] = molecular target: Indoleamine 2,3-dioxygenase 1 (Mus musculus) (UniProt P28776); assay: Inhibition of IDO1 in mouse B16F1 cells co-cultured with Balb/c mouse T-cells assessed as reversal of IDO1-mediated suppression of T-cell proliferation at 18 uM after 48 hrs by MTT assay; format: cell-based
Chain of Indoleamine 2,3-dioxygenase 1 (Mus musculus) (P28776 whole entry, looked up): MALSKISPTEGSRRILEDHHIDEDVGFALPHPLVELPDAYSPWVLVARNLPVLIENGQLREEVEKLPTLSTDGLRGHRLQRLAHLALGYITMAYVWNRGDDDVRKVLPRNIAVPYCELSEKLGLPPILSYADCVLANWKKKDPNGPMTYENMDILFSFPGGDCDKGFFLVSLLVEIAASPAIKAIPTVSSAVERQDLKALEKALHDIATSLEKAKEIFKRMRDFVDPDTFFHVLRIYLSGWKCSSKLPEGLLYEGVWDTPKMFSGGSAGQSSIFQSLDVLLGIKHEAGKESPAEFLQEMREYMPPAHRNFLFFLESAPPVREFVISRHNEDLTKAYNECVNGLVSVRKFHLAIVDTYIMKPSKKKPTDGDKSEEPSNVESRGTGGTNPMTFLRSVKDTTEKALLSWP

[5] = molecular target: Indoleamine 2,3-dioxygenase 1 (Mus musculus) (UniProt P28776); assay: Inhibition of IDO1 in mouse B16F1 cells co-cultured with Balb/c mouse T-cells assessed as increase in IFN-gamma level at 18 uM after 48 hrs by ELISA; format: cell-based
[6] = molecular target: Indoleamine 2,3-dioxygenase 1 (Mus musculus) (UniProt P28776); assay: Inhibition of IDO1 in mouse B16F1 cells co-cultured with Balb/c mouse T-cells assessed as decrease in differentiation of Treg cells by measuring CD4+/CD25+/FOXP3 cells at 18 uM by FITC/APC/PE staining based flow cytometry (reference value: 11.7%); format: cell-based; design: scale not given: the % may be the effect or the level left
[7] = molecular target: T1, Indoleamine 2,3-dioxygenase 1; assay: Binding affinity to recombinant human IDO1 assessed as interaction with ferrous ion in enzyme active site by measuring absorbance maxima for ferrous heme at 2 mM by UV-Visible spectral analysis (reference value: 424 nanometer)
Target sequence in this assay (P14902 whole entry, looked up): as the sequence (P14902 whole entry) above

[8] = molecular target: Indoleamine 2,3-dioxygenase 1 (Mus musculus) (UniProt P28776); assay: Inhibition of IDO1 in mouse B16F1 cells co-cultured with Balb/c mouse T-cells assessed as reversal of IDO1-mediated suppression of T-cell proliferation at 1.5 uM after 48 hrs by MTT assay; format: cell-based
[9] = molecular target: Indoleamine 2,3-dioxygenase 1 (Mus musculus) (UniProt P28776); assay: Inhibition of IDO1 in mouse B16F1 cells co-cultured with Balb/c mouse T-cells assessed as increase in IFN-gamma level at 1.5 uM after 48 hrs by ELISA; format: cell-based
[10] = molecular target: Indoleamine 2,3-dioxygenase 1 (Mus musculus) (UniProt P28776); assay: Inhibition of IDO1 in mouse B16F1 cells co-cultured with Balb/c mouse T-cells assessed as reversal of IDO1-mediated suppression of T-cell proliferation at 30 uM after 48 hrs by MTT assay; format: cell-based
[11] = molecular target: Indoleamine 2,3-dioxygenase 1 (Mus musculus) (UniProt P28776); assay: Inhibition of IDO1 in mouse B16F1 cells co-cultured with Balb/c mouse T-cells assessed as increase in IFN-gamma level at 30 uM after 48 hrs by ELISA; format: cell-based
[12] = molecular target: Indoleamine 2,3-dioxygenase 1 (Mus musculus) (UniProt P28776); assay: Inhibition of IDO1 in mouse B16F1 cells co-cultured with Balb/c mouse T-cells assessed as decrease in differentiation of Treg cells by measuring CD4+/CD25+/FOXP3 cells at 30 uM by FITC/APC/PE staining based flow cytometry (reference value: 11.7%); format: cell-based; design: scale not given: the % may be the effect or the level left

Row | SMILES | IC50 [1] [µM] | Activity (HeLa [2]) | further results
1 | O=C(Cn1c(=O)oc2ccccc21)c1ccc(F)cc1 | 53.1 | Non-Toxic | –
2 | O=C(Cn1c(=O)oc2ccc(Cl)cc21)c1ccc(F)cc1 | 20.7 | Non-Toxic | –
3 | COc1ccc(CNC(=O)n2c(=O)oc3ccccc32)cc1 | 31.8 | Non-Toxic | –
4 | O=C(Cn1c(=O)oc2ccc(Cl)cc21)c1cccc(Cl)c1 | 76.6 | Non-Toxic | –
5 | O=c1oc2ccccc2n1CC(O)c1ccc(F)cc1 (stereo not drawn) | 49.3 | Non-Toxic | –
6 | O=c1oc2ccc(Cl)cc2n1Cc1ccc(Cl)cc1 | 6.08 | Non-Toxic | inhibition (HeLa [3]): inactive; inhibition [4]: 52%; inhibition [5]: Active; Activity [6]: 8.7%; Activity [7]: 418 nm
7 | O=c1oc2ccc([N+](=O)[O-])cc2n1Cc1ccc(Cl)cc1 | 99.3 | Non-Toxic | –
8 | O=C(c1ccccc1)n1c(=O)oc2ccccc21 | 90.5 | Non-Toxic | –
9 | O=c1[nH]c2ccccc2n1CC(O)c1ccc(F)cc1 (stereo not drawn) | 99.9 | Non-Toxic | –
10 | Nc1ccc2oc(=O)n(Cc3cccc(F)c3)c2c1 | > 100 | Non-Toxic | –
11 | O=C(Cn1c(=O)oc2ccc(Cl)cc21)c1ccc(Cl)cc1 | 24.9 | Non-Toxic | –
12 | O=c1oc2ccc(Cl)cc2n1CC(O)c1ccc(Cl)cc1 (stereo not drawn) | 62.7 | Non-Toxic | –
13 | OC(CC1c2ccccc2-c2cncn21)C1CCCCC1 (racemic) | – | – | inhibition [8]: Active; inhibition [9]: Active
14 | O=c1oc2ccc(F)cc2n1Cc1cccc(F)c1 | 28.5 | Non-Toxic | –
15 | O=C(Cn1c(=O)oc2ccccc21)c1ccc(Cl)cc1 | 38.6 | Non-Toxic | –
16 | O=c1oc2ccccc2n1CC(O)c1cccc(Cl)c1 (stereo not drawn) | 80.6 | Non-Toxic | –

Row | SMILES | IC50 [1] [µM] | Activity (HeLa [2]) | further results
17 | O=c1oc2ccc(Cl)cc2n1CC(O)c1cccc(Cl)c1 (stereo not drawn) | 60.9 | Non-Toxic | –
18 | O=c1oc2ccc(Cl)cc2n1Cc1cccc(F)c1 | 9.75 | Non-Toxic | inhibition (HeLa [3]): inactive; inhibition [10]: Active; inhibition [11]: Active; Activity [12]: 6%; Activity [7]: 418 nm
19 | O=c1oc2ccc([N+](=O)[O-])cc2n1Cc1cccc(F)c1 | 99.8 | Non-Toxic | –
20 | O=c1oc2ccccc2n1CC(O)c1ccc(Cl)cc1 (stereo not drawn) | 50.8 | Non-Toxic | –
21 | COc1cccc(CNC(=O)n2c(=O)oc3ccc(Cl)cc32)c1 | 14.6 | Non-Toxic | –
22 | O=c1oc2ccc(F)cc2n1Cc1ccc(Cl)cc1 | 80.8 | Non-Toxic | –
23 | O=C(Cn1c(=O)oc2ccccc21)c1cccc(Cl)c1 | 49.3 | Non-Toxic | –
24 | O=c1oc2ccc(Cl)cc2n1CCc1ccccc1 | 17.9 | Non-Toxic | –
25 | O=c1oc2ccccc2n1Cc1cccc(F)c1 | 30.8 | Non-Toxic | –
26 | O=c1oc2ccccc2n1Cc1ccc(Cl)cc1 | 35 | Non-Toxic | –
27 | O=C(Cc1ccc(F)cc1)n1c(=O)oc2ccc(Cl)cc21 | 6.4 | Non-Toxic | inhibition (HeLa [3]): inactive; inhibition [4]: Active; inhibition [5]: Active; Activity [6]: 7.1%
28 | O=c1oc2ccc(Cl)cc2n1CC(O)c1ccc(F)cc1 (stereo not drawn) | 10.2 | Non-Toxic | –
29 | O=C(Cc1ccc(F)cc1)n1c(=O)oc2ccccc21 | > 100 | Non-Toxic | –
30 | COc1ccc(NC(=O)n2c(=O)oc3ccc(Cl)cc32)cc1 | > 100 | Non-Toxic | –
31 | O=c1oc2ccccc2n1CCc1ccccc1 | > 100 | Non-Toxic | –
32 | Nc1nc2ccccc2n1C(=O)Cc1ccc(F)cc1 | 22.7 | Non-Toxic | –
